The values below come from US8546608B2, “Proteasome inhibitors and methods of using the same” (Cephalon, Inc., priority 2003, dated 2013).

A value given as a limit tells only on which side of the number the result lay.

Test [1] deals with T1, 20S Human Erythrocyte Proteasome (HEP) (Homo sapiens, UniProt P20618+P28074).
T1 construct: 20S Human Erythrocyte Proteasome (HEP), purchased from Immatics Biotechnologies Inc; purchased Immatics Biotechnologies Inc., Tübingen, Germany; host or cells: human erythrocytes (natural source)
The test is described as follows: Chymotrypsin-like activity of 20S Human Erythrocyte Proteasome (HEP), IC50 determination. To be noted: assay of Example C, inhibition of HEP. Type of test: biochemical. The method, boiled down:
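20S proteasome at 0.2 μg/mL (about 0.6 nM catalytic sites) in 20 mM Tris with 0.04% SDS, preincubated 15 min at 37° C with inhibitor before Suc-LLVY-AMC (100 μM final). AMC fluorescence read in the linear range; triplicates, IC50 from concentration series.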

Test [2] addresses T2, proteasome in Molt-4 cells (human leukemia) (Homo sapiens, UniProt P20618+P28074).
T2 sequence (P28074 60-263): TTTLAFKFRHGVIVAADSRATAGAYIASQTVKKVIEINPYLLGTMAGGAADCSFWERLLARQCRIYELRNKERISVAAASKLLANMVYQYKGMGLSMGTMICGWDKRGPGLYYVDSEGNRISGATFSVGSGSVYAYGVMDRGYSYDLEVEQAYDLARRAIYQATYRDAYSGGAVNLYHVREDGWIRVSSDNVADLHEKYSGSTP
T2 sequence (P20618 29-241): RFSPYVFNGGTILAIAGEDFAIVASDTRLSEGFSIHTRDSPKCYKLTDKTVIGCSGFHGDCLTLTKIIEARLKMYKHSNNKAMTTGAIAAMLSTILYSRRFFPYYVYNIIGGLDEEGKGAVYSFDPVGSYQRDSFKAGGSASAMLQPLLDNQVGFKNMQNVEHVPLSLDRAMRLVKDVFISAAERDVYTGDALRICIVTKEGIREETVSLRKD
Type of test: cell-based. The conditions noted are these: assay of Example E, inhibition of MOLT4; read-out: MOLT4 (EC50). Put shortly: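 Intact Molt-4 cells (6×10^6 cells/mL) in HEPES-buffered saline were preincubated with inhibitor 15 min at 37 °C, then given cell-permeable MeOSuc-FLF-AFC at 25 μM final.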

`CCCCCCCCCCCNC(=O)N[C@H](C(=O)N[C@@H](CC(C)C)B(O)O)[C@@H](C)O` [E.1.24, Boronic acid, [(1R)-1-[[(2S,3R)-3-hydroxy-2-[(undecylaminocarbonyl)amino]-1-oxobutyl]amino]-3-methylbutyl]]: in test [1], the IC50 is below 10 nM. The concentration giving a half-maximal response (EC50) in test [2] is below 200 nM.

Regarding `CC(C)C[C@H](NC(=O)[C@@H](NC(=O)c1ccc2ccccc2c1Br)[C@@H](C)O)B(O)O` [E.1.25, Boronic acid, [(1R)-1-[[(2S,3R)-3-hydroxy-2-[(1-Bromo-2-naphthoyl)amino]-1-oxobutyl]amino]-3-methylbutyl]], the IC50 in test [1] is below 10 nM. The EC50 in test [2] is below 200 nM.

The molecule `CC(C)C[C@H](NC(=O)[C@@H](NC(=O)c1ccc2cc(Br)ccc2c1)[C@@H](C)O)B(O)O` [E.1.26, Boronic acid, [(1R)-1-[[(2S,3R)-3-hydroxy-2-[(6-Bromo-2-naphthoyl)amino]-1-oxobutyl]amino]-3-methylbutyl]] had an IC50 in test [1] below 10 nM. Besides, in test [2], the EC50 was below 200 nM.

`CCCCCCCCCC(=O)N[C@@H](CC(N)=O)C(=O)N[C@@H](CC(C)C)B(O)O` [E.1.27, Boronic acid, [(1R)-1-[[(2S)-3-carbamoyl-2-[(decanoyl)amino]-1-oxopropyl]amino]-3-methylbutyl]] yielded an IC50 in test [1] below 10 nM. The EC50 in test [2] is below 200 nM.

The molecule `CCCCc1ccc(C(=O)N[C@@H](CC(N)=O)C(=O)N[C@@H](CC(C)C)B(O)O)cc1` [E.1.28, Boronic acid, [(1R)-1-[[(2S)-3-carbamoyl-2-[4-butyl(benzoyl)amino]-1-oxopropyl]amino]-3-methylbutyl]] came in with an IC50 in test [1] below 10 nM. Besides, the EC50 in test [2] was in the range of 200 to 2000 nM.

In turn, `CCCCCCCCCC(=O)N[C@@H](CCCNC(N)=O)C(=O)N[C@@H](CC(C)C)B(O)O` [E.1.29, Boronic acid, [(1R)-1-[[(2S)-2-[(decanoyl)amino]-1-oxo-5-ureido-pentyl]amino]-3-methylbutyl]] had an IC50 in test [1] below 10 nM. Besides, the EC50 in test [2] fell in the range of 200 to 2000 nM.

Turning to `CCCCc1ccc(C(=O)N[C@@H](CCCNC(N)=O)C(=O)N[C@@H](CC(C)C)B(O)O)cc1` [E.1.30, Boronic acid, [(1R)-1-[[(2S)-2-[(4-butylbenzoyl)amino]-1-oxo-5-ureido-pentyl]amino]-3-methylbutyl]], the IC50 in test [1] was below 10 nM. Further, in test [2], the concentration giving a half-maximal response (EC50) is 2000 to 10000 nM.

In the case of `CCCCCCCCCC(=O)N[C@@H](CCCNC(=N)N[N+](=O)[O-])C(=O)N[C@@H](CC(C)C)B(O)O` [E.2.1, Boronic acid, [(1R)-1-[[(2S)-5-[[imino(nitroamino)methyl]amino]-2-[(1-oxodecyl)amino]-1-oxopentyl]amino]-3-methylbutyl]], the IC50 in test [1] is below 10 nM. Further, the EC50 in test [2] is below 200 nM.

For `CCCCCCCC(=O)N[C@@H](CCCNC(=N)N[N+](=O)[O-])C(=O)N[C@@H](CC(C)C)B(O)O` [E.2.2, Boronic acid, [(1R)-1-[[(2S)-5-[[imino(nitroamino)methyl]amino]-2-[(octanoyl)amino]-1-oxopentyl]amino]-3-methylbutyl]], in test [1], the IC50 was below 10 nM. In addition, the EC50 in test [2] lay in the range of 200 to 2000 nM.

`CC(C)C[C@H](NC(=O)[C@H](CCCNC(=N)N[N+](=O)[O-])NC(=O)C1(c2ccccc2)CCCC1)B(O)O` [E.2.3, Boronic acid, [(1R)-1-[[(2S)-5-[[imino(nitroamino)methyl]amino]-2-[(1-phenylcyclopentanecarbnyl)amino]-1-oxopentyl]amino]-3-methylbutyl]]: the IC50 in test [1] was below 10 nM. In addition, in test [2], the EC50 was 2000 to 10000 nM.

Molecule `CC[C@@H](C(=O)N[C@@H](CCCNC(=N)N[N+](=O)[O-])C(=O)N[C@@H](CC(C)C)B(O)O)c1ccccc1` [E.2.4, Boronic acid, [(1R)-1-[[(2S)-5-[[imino(nitroamino)methyl]amino]-2-[((2R)-2-phenylbutanoyl)amino]-1-oxopentyl]amino]-3-methylbutyl]] showed an IC50 in test [1] below 10 nM. Moreover, the EC50 in test [2] is above 10000 nM.

For `CC(C)C[C@H](NC(=O)[C@H](CCCNC(=N)N[N+](=O)[O-])NC(=O)C1CCC(C(C)(C)C)CC1)B(O)O` (stereo partly drawn) [E.2.5, Boronic acid, [(1R)-1-[[(2S)-5-[[imino(nitroamino)methyl]amino]-2-[[4-(1,1-Dimethylethyl)cyclohexanecarbonyl]amino]-1-oxopentyl]amino]-3-methylbutyl]], the half-inhibitory concentration (IC50) in test [1] is below 10 nM. In test [2], the EC50 lay in the range of 2000 to 10000 nM.

In test [1], `CCCCC[C@H]1CC[C@H](C(=O)N[C@@H](CCCNC(=N)N[N+](=O)[O-])C(=O)N[C@@H](CC(C)C)B(O)O)CC1` [E.2.6, Boronic acid, [(1R)-1-[[(2S)-5-[[imino(nitroamino)methyl]amino]-2-[(trans-4-pentylcyclohexanecarbonyl)amino]-1-oxopentyl]amino]-3-methylbutyl]] had an IC50 below 10 nM. Moreover, in test [2], the EC50 fell in the range of 200 to 2000 nM.

Take `CC(C)C[C@H](NC(=O)[C@H](CCCNC(=N)N[N+](=O)[O-])NC(=O)CCCc1ccccc1)B(O)O` [E.2.7, Boronic acid, [(1R)-1-[[(2S)-5-[[imino(nitroamino)methyl]amino]-2-[(4-phenylbutanoyl)amino]-1-oxopentyl]amino]-3-methylbutyl]]: the IC50 in test [1] is below 10 nM. Further, the EC50 in test [2] was 2000 to 10000 nM.

Consider `CC(C)C[C@H](NC(=O)[C@H](CCCNC(=N)N[N+](=O)[O-])NC(=O)c1ccc(C(C)(C)C)cc1)B(O)O` [E.2.8, Boronic acid, [(1R)-1-[[(2S)-5-[[imino(nitroamino)methyl]amino]-2-[(4-(1,1-dimethylethyl)benzoyl)amino]-1-oxopentyl]amino]-3-methylbutyl]], for which, in test [1], the IC50 is below 10 nM. For the same molecule, in test [2], the EC50 was in the range of 2000 to 10000 nM.

Consider `CCCCCCCCC(=O)N[C@@H](CCCNC(=N)N[N+](=O)[O-])C(=O)N[C@@H](CC(C)C)B(O)O` [E.2.9, Boronic acid, [(1R)-1-[[(2S)-5-[[imino(nitroamino)methyl]amino]-2-[(nonanoyl)amino]-1-oxopentyl]amino]-3-methylbutyl]], for which the IC50 in test [1] was below 10 nM. For the same molecule, the EC50 in test [2] was 200 to 2000 nM.

In test [1], `CC(C)C[C@H](NC(=O)[C@H](CCCNC(=N)N[N+](=O)[O-])NC(=O)c1cccs1)B(O)O` [E.2.10, Boronic acid, [(1R)-1-[[(2S)-5-[[imino(nitroamino)methyl]amino]-2-[(2-thiophenecarbonyl)amino]-1-oxopentyl]amino]-3-methylbutyl]] yielded an IC50 below 10 nM. The EC50 in test [2] is above 10000 nM.

`CC(C)C[C@H](NC(=O)[C@H](CCCNC(=N)N[N+](=O)[O-])NC(=O)c1cccc(F)c1F)B(O)O` [E.2.11, Boronic acid, [(1R)-1-[[(2S)-5-[[imino(nitroamino)methyl]amino]-2-[(2,3-difluorobenzoyl)amino]-1-oxopentyl]amino]-3-methylbutyl]]: the IC50 in test [1] is below 10 nM. Also, the EC50 in test [2] is above 10000 nM.

For the molecule `CCCCCCCCCCCC(=O)N[C@@H](CCCNC(=N)N[N+](=O)[O-])C(=O)N[C@@H](CC(C)C)B(O)O` [E.2.12, Boronic acid, [(1R)-1-[[(2S)-5-[[imino(nitroamino)methyl]amino]-2-[(dodecanoyl)amino]-1-oxopentyl]amino]-3-methylbutyl]], the IC50 in test [1] is below 10 nM. In addition, in test [2], the 50% effective concentration (EC50) was below 200 nM.

Turning to `CC(C)C[C@H](NC(=O)[C@H](CCCNC(=N)N[N+](=O)[O-])NC(=O)Cc1ccccc1I)B(O)O` [E.2.13, Boronic acid, [(1R)-1-[[(2S)-5-[[imino(nitroamino)methyl]amino]-2-[[2-(2-iodophenyl)acetyl]amino]-1-oxopentyl]amino]-3-methylbutyl]], in test [1], the IC50 is below 10 nM. The EC50 in test [2] was 2000 to 10000 nM.

As to `CC(C)C[C@H](NC(=O)[C@H](CCCNC(=N)N[N+](=O)[O-])NC(=O)C1CCCCC1)B(O)O` [E.2.14, Boronic acid, [(1R)-1-[[(2S)-5-[[imino(nitroamino)methyl]amino]-2-[(cyclohexanecarbonyl)amino]-1-oxopentyl]amino]-3-methylbutyl]], the IC50 in test [1] is below 10 nM. Further, the EC50 in test [2] was above 10000 nM.

As for `Cc1ccccc1C(=O)N[C@@H](CCCNC(=N)N[N+](=O)[O-])C(=O)N[C@@H](CC(C)C)B(O)O` [E.2.15, Boronic acid, [(1R)-1-[[(2S)-5-[[imino(nitroamino)methyl]amino]-2-[(2-methylbenzoyl)amino]-1-oxopentyl]amino]-3-methylbutyl]], the IC50 in test [1] was below 10 nM. In test [2], the EC50 is above 10000 nM.

In test [1], `CC(C)C[C@H](NC(=O)[C@H](CCCNC(=N)N[N+](=O)[O-])NC(=O)[C@@H](C)c1ccccc1)B(O)O` [E.2.16, Boronic acid, [(1R)-1-[[(2S)-5-[[imino(nitroamino)methyl]amino]-2-[((2S)-2-phenylpropanoyl)amino]-1-oxopentyl]amino]-3-methylbutyl]] showed an IC50 below 10 nM. In addition, the EC50 in test [2] is above 10000 nM.

In general, IC50 refers to the concentration that inhibits the measured activity by half. High values mean weaker potency, low ones greater potency. One may read the EC50 as the concentration needed to bring the measured effect to its halfway point.
